Source: patent publication US20080112955A1, “METHOD AND COMPOSITION FOR PREVENTING PAIN IN SICKLE CELL PATIENTS” (TRF PHARMA, INC., priority 2002, published 2008)

Assays:
P-selectin-Ig chimera = test: nonstatic rotatory adherence assay: erythrocytes on immobilized P-selectin-Ig chimera; assay type: cell-based, human; details: for percent adherence of nonsickle cells to P-selectin with agent / percent adherence of sickle cells to P-selectin with agent: mean±SEM, 100% = untreated nonsickle erythrocytes on BSA or Siglec, 5 mM EDTA or sialidase; for reduction of adherence of nonsickle cells to P-selectin / reduction of adherence of sickle cells to P-selectin: 5 mM EDTA present or RBCs pretreated with 0.1 U/mL sialidase
Protocol: (§1) 400 ng bovine serum albumin (BSA; Sigma), a sialic acid-binding lectin (Siglec)-6-Ig chimera, mutated Siglec-7-Ig chimera, or P-selectin-Ig chimera was immobilized on microtiter wells. […] These chimeras were applied to the wells in 10 mM carbonate buffer overnight and then blocked with 0.5% BSA in Hanks buffered salt solution (University of California, San Francisco, Cell Culture Facility) before incubation with RBCs using a published rotatory adhesion assay. Erythrocyte adherence to BSA, Siglec-6, mutant Siglec-7, or P-selectin was measured as the number of RBCs observed in 8 random 0.04-mm2 fields for each condition. The adherence data are presented as percent adherence where 100% is the mean number of untreated nonsickle erythrocytes/field in a well in which BSA or Siglec was immobilized.
(§2) To determine whether sialic acid on erythrocytes is a recognition determinant for P-selectin, prior to testing RBC adherence the erythrocytes were treated with sialidase using a published method. Packed RBCs were mixed with an equal volume of buffer or 0.1 U/mL Vibrio cholerae sialidase (Calbiochem, San Diego). […] Efficacy of sialidase on RBCs was confirmed by agglutination with peanut extract lectin (Arachis hypogea lectin, Sigma).
(§3) For each experiment mean adherence was set arbitrarily at 100% for the control data. The mean adherence of data derived from perturbations of control conditions were calculated as a percentage relative to the control. The average of the means from replicate experiments was then calculated. The uncertainty of the estimate of the means from the data distributed in each set is described as SEM. An SEM of 0% resulted when control data sets were normalized to 100%. We used the paired one-tailed Student test to compare changes in adhesion resulting from different perturbations of the system.

[1] = tested on: human umbilical vein endothelial cells (HUVECs); test: static gravity adherence assay with dip rinse: erythrocyte adherence to endothelial monolayers; assay type: cell-based; details: for percent adherence of nonsickle RBCs to thrombin-treated endothelium with agent / percent adherence of nonsickle RBCs to untreated endothelium with agent / percent adherence of sickle cells to thrombin-treated endothelium with agent / percent adherence of sickle cells to untreated endothelium with agent: mean±SEM, 100% = nonsickle RBCs on untreated HUVECs, mAbs 1:200, sLeX 100 μM, sialidase 0.1 U/mL; for percent adherence of nonsickle RBCs to thrombin-treated endothelium with agent / percent adherence of nonsickle RBCs to untreated endothelium with agent / percent adherence of sickle cells to thrombin-treated endothelium with agent / percent adherence of sickle cells to untreated endothelium with agent / reduction of adherence of nonsickle RBCs to untreated endothelium: sLac 500 μM; for reduction of adherence of nonsickle RBCs to thrombin-treated endothelium / reduction of adherence of nonsickle RBCs to untreated endothelium / reduction of adherence of sickle cells to thrombin-treated endothelium / reduction of adherence of sickle cells to untreated endothelium: static, vs no agent, sialidase 0.1 U/mL on RBCs; for reduction of adherence of nonsickle RBCs to thrombin-treated endothelium / reduction of adherence of sickle cells to thrombin-treated endothelium: HUVECs 0.1 U/mL thrombin 5 min; for reduction of adherence of nonsickle RBCs to thrombin-treated endothelium / reduction of adherence of sickle cells to thrombin-treated endothelium / reduction of adherence of sickle cells to untreated endothelium: mAbs 1:200, sLac 500 μM; for reduction of adherence of nonsickle RBCs to untreated endothelium / reduction of adherence of sickle cells to untreated endothelium: untreated HUVECs; for reduction of adherence of nonsickle RBCs to untreated endothelium: mAbs 1:200 on HUVECs; for reduction of adherence of sickle cells to thrombin-treated endothelium / reduction of adherence of sickle cells to untreated endothelium: sickle RBCs; for reduction of adherence compared with sLac present: 100 μM sLeX
Protocol: Thrombin treatment of human umbilical vein endothelial cells (HUVECs) and the static gravity adherence assay with dip rinse were performed as previously described. When 90% confluent, HUVECs (Clonetics, San Diego, Calif.) were treated with 0.1 U/mL thrombin (Sigma Chemicals, St Louis, Mo.) or medium alone for 5 minutes before assaying erythrocyte adherence. Adherent RBCs were counted microscopically in 8 randomly selected 0.15-mm2 fields for each study condition. The adherence data may be presented as percent adherence where 100% is the mean adherence of nonsickle RBCs to untreated HUVECs.
Because of potential modulatory effects of heparin on adherence, the static adherence assay was used to compare the adhesivity of sickle cells and autologous plasma according to whether they were prepared with citrate anticoagulant or with heparin. […] The contribution of P-selectin to thrombin-enhanced adherence was determined by comparing the effects on adherence of exposing HUVECs to no antibody, a 1:200 dilution of nonblocking P-selectin monoclonal antibodies (mAbs) AC1.2 (BD Pharmingen, San Diego, Calif.), or a 1:200 dilution of blocking P-selectin mAb 9E1 (R & D Systems, Minneapolis, Minn.).
(§4) To determine whether sialic acid on erythrocytes is a recognition determinant for P-selectin, prior to testing RBC adherence the erythrocytes were treated with sialidase using a published method. Packed RBCs were mixed with an equal volume of buffer or 0.1 U/mL Vibrio cholerae sialidase (Calbiochem, San Diego).
as §3

RBCs = test: hemolysis of sialidase-treated RBCs by colorimetric spectrophotometry; assay type: cell-based, human; details: 0.1 U/mL sialidase
Protocol: as §2

Siglec-6-Ig chimera = test: nonstatic rotatory adherence assay: erythrocytes on immobilized control Siglec-6-Ig chimera; assay type: cell-based, human; details: mean±SEM, RBCs pretreated with sialidase
Protocol: as §1
as §4, with “Diego). […]” for “Diego).”
For each experiment mean adherence was set arbitrarily at 100% for the control data. The mean adherence of data derived from perturbations of control conditions were calculated as a percentage relative to the control. The average of the means from replicate experiments was then calculated. […]

[2] = tested on: thrombin-treated HUVECs (endothelial cell P-selectin); test: parallel plate flow adhesion of sickle erythrocytes to HUVECs; assay type: cell-based, human; details: n=10
Source text: Blood samples obtained from subjects with sickle cell disease and from healthy control subjects, as approved by the Committee on Human Research at the University of California-San Francisco (UCSF), were drawn into citrate. The buffy coat was removed after the initial centrifugation and after each of 3 subsequent washes of the remaining erythrocytes in phosphate buffered saline (PBS) and one wash in HAH buffer (Hanks balanced salt solution [HBSS; UCSF Cell Culture Facility, San Francisco, Calif.], 1% bovine serum albumin [BSA, Fraction V; Sigma, St Louis, Mo.], 50 mM HEPES [N-2-hydroxyethylpiperazine-N′-2- ethanesulfonic acid; Sigma], pH 7.40). Erythrocytes to be used in flow adhesion studies were suspended to a 0.5% hematocrit. To assess for leukocyte contamination, the erythrocyte preparation was exposed to 10 μg/mL rhodamine 6G, which stains leukocytes but not erythrocytes, and washed 3 times in HAH. No leukocytes were detected in the erythrocyte suspensions prepared using the above protocol. […]
Rolling cells were defined as those sickle cells that were in the same microscopic focal plane as the immobile surface or endothelial monolayer and moving at a distinctly slower velocity than the bulk flow. Those cells determined to be rolling were in contact with the substrata throughout their entire transit through the field of observation, which excludes those cells in brief transient contact with the substrate. Data on rolling adherence are expressed as the mean numbers of rolling red blood cells (cells/mm^2) and the mean rolling velocity of these cells (mm/s) from multiple experiments; error is expressed as SEM. The microscopic field in which adherent cells were measured has an area of 0.15 mm^2 and a volume of 0.038 mm^3. […] The velocity of rolling cells was determined by the time required for a cell to roll across the 0.5-mm field (0.5 mm/s). […] Data on firm adhesion are expressed as the mean numbers of firmly adherent red blood cells in the area described above. Statistical significance was determined using the Student t test. […]

[3] = HUVECs treated with 0.1 U/mL thrombin for 5 minutes vs untreated
[4] = erythrocytes pretreated with 0.02% trypsin, data not shown

Molecule	percent adherence of nonsickle cells to P-selectin with agent (P-selectin-Ig chimera)	percent adherence of sickle cells to P-selectin with agent (P-selectin-Ig chimera)	reduction of adherence of nonsickle cells to P-selectin (P-selectin-Ig chimera)	reduction of adherence of sickle cells to P-selectin (P-selectin-Ig chimera)	percent adherence of nonsickle RBCs to thrombin-treated endothelium with agent [1]	percent adherence of nonsickle RBCs to untreated endothelium with agent [1]	percent adherence of sickle cells to thrombin-treated endothelium with agent [1]	percent adherence of sickle cells to untreated endothelium with agent [1]	reduction of adherence of nonsickle RBCs to thrombin-treated endothelium [1]	reduction of adherence of nonsickle RBCs to untreated endothelium [1]	reduction of adherence of sickle cells to thrombin-treated endothelium [1]	reduction of adherence of sickle cells to untreated endothelium [1]	other results
O=C(O)CN(CCN(CC(=O)O)CC(=O)O)CC(=O)O [EDTA]	95%±11%	177%±18%	35%	32%									
CC(=O)N[C@H]1[C@H]([C@H](O)[C@H](O)CO)O[C@@](O[C@H]2[C@@H](O)[C@@H](CO)O[C@@H](O[C@H]3[C@H](O)[C@@H](O)C(O)O[C@@H]3CO)[C@@H]2O)(C(=O)O)C[C@@H]1O (stereo partly shown) [sLac, 3′-sialyl-lactose]					162%±28%	105%±15%	304%±74%	144%±44%	Neither did sLac reduce significantly	not reduced significantly	Neither did sLac reduce significantly	not reduced significantly	
CC(=O)NC1C(O)CC(OC2C(O)C(CO)OC(OC3C(CO)OC(O)C(NC(C)=O)C3OC3OC(C)C(O)C(O)C3O)C2O)(C(=O)O)OC1C(O)C(O)CO (stereo not shown) [sLeX, sialyl Lewis X (sLeX) tetrasaccharide]					82%±41%	55%±12%	196%±38%	91±8%					reduction of adherence compared with sLac present ([1]; nonsickle cells, thrombin-treated endothelial cells): 49%; reduction of adherence compared with sLac present ([1]; nonsickle cells, untreated endothelial cells, not significant): ~48%; reduction of adherence compared with sLac present ([1]; sickle cells, thrombin-treated endothelial cells): 36%; reduction of adherence compared with sLac present ([1]; sickle cells, untreated endothelial cells, not significant): ~37%
sialidase: Vibrio cholerae sialidase (Calbiochem) used to treat RBCs	88%±11%	182%+17%	no significant effect	33%	68%±15%	53%±13%	282%±133%	191%±67%	81%	47%	63%	36%	hemolysis (RBCs): No hemolysis was detected; percent adherence of nonsickle cells to Siglec-6 after sialidase (Siglec-6-Ig chimera; nonsickle cells): 79%±13%; percent adherence of sickle cells to Siglec-6 after sialidase (Siglec-6-Ig chimera; sickle cells): 157%±18%
thrombin													decrease in rolling velocities of sickle cells [2, 3]: 26%; increase in number of rolling sickle cells [2, 3]: 54%; increase in number of firmly adhered sickle cells ([2]; thrombin treatment of HUVECs vs untreated): 130%
trypsin: protease used at 0.02% to pretreat erythrocytes (protein, UniProt P00760 24-246, looked up) Serine protease 1: IVGGYTCGANTVPYQVSLNSGYHFCGGSLINSQWVVSAAHCYKSGIQVRLGEDNINVVEGNEQFISASKSIVHPSYNSNTLNNDIMLIKLKSAASLNSRVASISLPTSCASAGTQCLISGWGNTKSSGTSYPDVLKCLKAPILSDSSCKSAYPGQITSNMFCAGYLEGGKDSCQGDSGGPVVCSGKLQGIVSWGSGCAQKNKPGVYTKVCNYVSWIKQTIASN													adherence of sickle and nonsickle cells to untreated and thrombin-treated endothelial cells [1, 4]: reduced substantially; adhesion of sickle and nonsickle cells to immobilized P-selectin (P-selectin-Ig chimera; [4]): did not reduce significantly
